Measured values taken from BindingDB's records for doi:10.1016/j.bioorg.2015.05.008 (Universidade Do Porto, 2015).

Tests used:
Test in all cases: Radioligand Binding Assay
[1] = molecular target: T1, Adenosine receptor A3 (Homo sapiens, UniProt P0DMS8)
T1 sequence (P0DMS8 whole entry): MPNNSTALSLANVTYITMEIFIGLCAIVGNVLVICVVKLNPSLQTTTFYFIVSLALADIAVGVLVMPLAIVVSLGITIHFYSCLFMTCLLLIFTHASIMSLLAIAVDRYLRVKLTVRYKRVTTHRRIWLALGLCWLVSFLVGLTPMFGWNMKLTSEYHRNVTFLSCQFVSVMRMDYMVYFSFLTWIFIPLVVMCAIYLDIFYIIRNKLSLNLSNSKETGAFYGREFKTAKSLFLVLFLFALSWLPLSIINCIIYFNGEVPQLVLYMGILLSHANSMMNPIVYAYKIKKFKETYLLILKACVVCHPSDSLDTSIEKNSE
Experimental: (§1) The radioligands used were 1 nM (2R,3R,4S,5R)-2-(2-chloro-6-cyclopentylamino-purin-9-yl)-5-hydroxymethyl-tetrahydro-3,4-diol ([3H]CCPA) for hA1, 10 nM (1-(6-amino-9H-purin-9-yl)-1-deoxy-N-ethyl-β-D-ribofuronamide) ([3H]NECA) for hA2a, and 1 nM 2-(1-hexynyl)-N6-methyladenosine [3H] ([3H]HEMADO) for hA3 receptors.

[2] = molecular target: Adenosine receptor A2a (Homo sapiens, UniProt P29274)
Experimental: as §1

[3] = molecular target: T2, Adenosine receptor A1 (Homo sapiens, UniProt P30542)
T2 sequence (P30542 whole entry): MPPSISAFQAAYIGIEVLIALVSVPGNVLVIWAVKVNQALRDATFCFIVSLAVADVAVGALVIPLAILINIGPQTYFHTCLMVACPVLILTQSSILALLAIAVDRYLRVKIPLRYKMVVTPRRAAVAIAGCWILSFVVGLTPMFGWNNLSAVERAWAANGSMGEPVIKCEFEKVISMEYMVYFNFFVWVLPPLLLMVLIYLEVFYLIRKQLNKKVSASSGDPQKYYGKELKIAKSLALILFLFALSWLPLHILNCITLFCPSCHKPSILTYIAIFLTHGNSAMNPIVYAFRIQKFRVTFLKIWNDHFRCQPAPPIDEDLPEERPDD
Experimental: as §1

Sequence of Adenosine receptor A2a (P29274 whole entry): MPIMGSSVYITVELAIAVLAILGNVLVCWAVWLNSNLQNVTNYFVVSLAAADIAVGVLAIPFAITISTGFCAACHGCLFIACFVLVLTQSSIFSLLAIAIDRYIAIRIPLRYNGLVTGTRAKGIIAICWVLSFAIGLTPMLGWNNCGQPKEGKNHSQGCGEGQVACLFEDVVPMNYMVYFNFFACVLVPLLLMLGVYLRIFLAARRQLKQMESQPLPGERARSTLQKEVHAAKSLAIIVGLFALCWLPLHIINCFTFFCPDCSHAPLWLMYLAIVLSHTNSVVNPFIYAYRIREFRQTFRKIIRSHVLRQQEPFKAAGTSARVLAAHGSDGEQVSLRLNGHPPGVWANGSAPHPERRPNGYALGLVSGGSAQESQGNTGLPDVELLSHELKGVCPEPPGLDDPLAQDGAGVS

Compound	Ki [1] [µM]	Ki [2] [µM]	Ki [3] [µM]
O=C(Nc1cc2ccccc2oc1=O)c1cccnc1 [N-(coumarin-3-yl)nicotinamide (6)]	> 100	> 100	> 100
O=C(Nc1cc2ccccc2oc1=O)c1ccco1 [N-(Coumarin-3-yl)furan-2-carboxamide (8)]	9.79	> 100	5.18
O=C(Nc1cc2ccccc2oc1=O)c1cccs1 [N-(coumarin-3-yl)thiophene-2-carboxamide (7)]	> 60	> 100	16.2
C=CC(=O)Nc1cc2ccccc2oc1=O [N-(Coumarin-3-yl)acrylamide (2)]	> 100	12.2	8.95
O=C(Nc1cc2ccccc2oc1=O)c1ccccc1 [N-(2-oxidanylidenechromen-3-yl)benzamide]	3.24	> 100	> 100
C=CC(=O)Nc1c(O)c2ccccc2oc1=O [N-(4-Hydroxycoumarin-3-yl)acrylamide (3)]	> 100	> 100	> 100
O=C(Nc1c(O)c2ccccc2oc1=O)c1ccccc1 [N-(4-hydroxycoumarin-3-yl)benzamide (5)]	> 100	> 100	> 100
